The target of assay [1] is OGA (S400 O-GLCNAC) (Homo sapiens (Human), UniProt O60502). The assay can be described thus: Cellular OGA-Tau MSD Assay. The following applies: HEK-293T cells transfected with OGT and Tau-V5; Tau-S400-GlcNAc MSD readout. Type of assay: cell-based. On the procedure:
HEK-293T cells were transfected with OGT and Tau-V5 plasmids using Lipofectamine and grown overnight. Next day, the cells were collected and re-plated at 1×10^5 cells per well in 96 well plates. Cells were incubated for 4 hr at 37° C., before compounds were added at 1 uM, with 3-fold dilutions in a 10-point titration. Cell plates were incubated with compounds overnight at 37° C. The next day media was removed from wells by gentle aspiration and 120 ul of 1× Cell Lysis buffer mixed with protease and phosphatase cocktail added to each well. A freeze thaw was performed at −80° C., then mixed before transferring 50 μl to MSD plates coated with V5-tag antibody to capture Tau. MSD Plates were incubated overnight at 4° C., on a plate shaker. The following day, plates were washed and incubated with Tau-S400-GlcNAc antibody for 2 hr and then developed with rabbit Sulfo-tag antibody. Final read out was carried out on an MSD 600 reader. The data was analyzed using Graph Pad or Genedata, the data was normalized and % activity versus log of compound concentration was plotted. The ICso values were obtained from a 4 parameter fit.

Assay [2] concerns the target Recombinant full length human OGA enzyme (Homo sapiens (Human), UniProt O60502). The experiment in a line: OGA Enzyme Inhibition Biochemical Assay. The following applies: 1 nM OGA, 100 μM 4-MUGlcNAc, 90 minutes, pH 6.4. As to the method:
Recombinant full length human OGA enzyme was purchased from Origene. 4-MUGlcNAc substrate was purchased from Sigma. All other reagents were purchased from Sigma or Fisher. Assay buffer consists of the McIlvaine buffer system, pH 6.4 (0.2M Na2HPO4 mixed with 0.1M citric acid) and 0.01% BSA. […] Reactions were incubated for 90 minutes at room temperature and quenched with 40 μl of 3M glycine, pH 10 and read on a Perkin Elmer Envision plate reader (Ex: 355 nm/Em: 460 nm). Compounds were tested with a 10-point dose-response starting from 20 μM with a 4-fold dilution. Data was fit using GraphPad Prism using a 4-parameter fit with variable slope.

Sequence of OGA (S400 O-GLCNAC) (O60502 whole entry): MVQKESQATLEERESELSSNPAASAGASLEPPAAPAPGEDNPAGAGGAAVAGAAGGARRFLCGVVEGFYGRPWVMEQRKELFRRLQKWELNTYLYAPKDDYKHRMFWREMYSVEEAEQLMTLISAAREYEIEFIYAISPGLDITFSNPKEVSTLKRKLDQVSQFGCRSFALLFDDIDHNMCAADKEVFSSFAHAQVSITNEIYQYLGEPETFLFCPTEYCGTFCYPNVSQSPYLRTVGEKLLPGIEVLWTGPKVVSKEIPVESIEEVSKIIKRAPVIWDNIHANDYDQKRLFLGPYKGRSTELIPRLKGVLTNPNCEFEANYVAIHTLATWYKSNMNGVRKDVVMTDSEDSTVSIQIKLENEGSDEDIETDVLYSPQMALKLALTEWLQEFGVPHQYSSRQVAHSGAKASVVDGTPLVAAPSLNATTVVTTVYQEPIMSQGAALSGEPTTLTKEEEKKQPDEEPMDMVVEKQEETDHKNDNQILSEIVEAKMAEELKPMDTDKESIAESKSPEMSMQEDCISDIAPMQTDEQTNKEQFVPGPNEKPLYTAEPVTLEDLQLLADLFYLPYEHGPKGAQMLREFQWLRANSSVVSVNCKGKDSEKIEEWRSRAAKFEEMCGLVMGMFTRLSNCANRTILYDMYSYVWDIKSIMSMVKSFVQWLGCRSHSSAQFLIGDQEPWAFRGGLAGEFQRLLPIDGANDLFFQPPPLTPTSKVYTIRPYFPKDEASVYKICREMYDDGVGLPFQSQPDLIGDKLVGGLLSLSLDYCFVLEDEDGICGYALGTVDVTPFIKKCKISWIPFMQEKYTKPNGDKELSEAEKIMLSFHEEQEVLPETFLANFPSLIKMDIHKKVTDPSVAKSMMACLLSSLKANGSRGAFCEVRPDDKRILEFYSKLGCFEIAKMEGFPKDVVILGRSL
Sequence of Recombinant full length human OGA enzyme (O60502 whole entry): as above

For `CC(=O)Nc1nc(F)c(CN2CCC3(C2)OCc2cnccc23)s1` (stereo not drawn) [Example 67, N-(5-((3H-Spiro[furo[3,4-c]pyridine-1,3′-pyrrolidin]-1′-yl)methyl)-4-fluorothiazol-2-yl)acetamide], the IC50 – broadly, the concentration that gives 50% inhibition – stood at 1000 nM in assay [1] and 120 nM in assay [2].

Consider `CC(=O)Nc1ncc(CN2C[C@@]3(Cc4ccccc4O3)C[C@@H]2C)s1` [Example 2, N-(5-(((2R,5′S)-5′-Methyl-3H-spiro[benzofuran-2,3′-pyrrolidin]-1′-yl)methyl)thiazol-2-yl)acetamide], for which the IC50 in assay [1] is 41 nM; in assay [2] it was 27 nM.

As for `CC(=O)Nc1ncc(CN2CC3(C[C@@H]2C)OCc2ncccc23)s1` (stereo partly drawn) [Example 80, N-(5-(((5′S)-5′-Methyl-7H-spiro[furo[3,4-b]pyridine-5,3′-pyrrolidin]-1′-yl)methyl)thiazol-2-yl)acetamide], the IC50 in assay [1] worked out at 15 nM; in assay [2] it was 49 nM.

As for `CC(=O)Nc1nc(F)c(CN2CCC[C@]3(C2)OCc2cnccc23)s1` (single isomer, unassigned) [Example 70-b], the values for the IC50 in assay [1] and in assay [2] were greater than 1000 nM and 850 nM, respectively.

As to `CC(=O)Nc1nc(F)c(CN2CCCC3(C2)OCc2ccccc23)s1` (stereo not drawn) [Example 56, N-(5-((3H-Spiro[isobenzofuran-1,3′-piperidin]-1′-yl)methyl)-4-fluorothiazol-2-yl)acetamide], the values for the IC50 in assay [1] and in assay [2] were 112 nM and 17 nM, respectively.

As for `COc1cnc2c(n1)CC1(C[C@H](C)N(Cc3sc(NC(C)=O)nc3F)C1)O2` (stereo partly drawn) [Example 50, N-(4-Fluoro-5-(((5′S)-2-methoxy-5′-methyl-7H-spiro[furo[2,3-b]pyrazine-6,3′-pyrrolidin]-1′-yl)methyl)thiazol-2-yl)acetamide], the IC50 is 9 nM in assay [1] and 2.3 nM in assay [2].

Regarding `CC(=O)Nc1nc(F)c(CN2CCCC3(C2)OCc2cnccc23)s1` (racemic) [Example 69, N-(5-((3H-Spiro[furo[3,4-c]pyridine-1,3′-piperidin]-1′-yl)methyl)-4-fluorothiazol-2-yl)acetamide], the IC50 in assay [1] was found to be 13.8 nM; in assay [2], 3.2 nM.

With `CC(=O)Nc1ncc(CN2CCCC3(C2)OCc2cncnc23)s1` (stereo not drawn) [Example 89, N-(5-((5H-Spiro[furo[3,4-d]pyrimidine-7,3′-piperidin]-1′-yl)methyl)thiazol-2-yl)acetamide], the values for the half-maximal inhibitory concentration (IC50) in assay [1] and in assay [2] were 84.6 nM and 67.9 nM, respectively.

As for `CC(=O)Nc1nc(F)c(CN2CCC[C@@]3(C2)OCc2c3ccnc2Cl)s1` [Example 84-a, (R)—N-(5-((4-chloro-3H-spiro[furo[3,4-c]pyridine-1,3′-piperidin]-1′-yl)methyl)-4-fluorothiazol-2-yl)acetamide], the values for the IC50 in assay [1] and in assay [2] were 8.5 nM and 2.6 nM, respectively.

For `CC(=O)Nc1nc(F)c(CN2C[C@@]3(Cc4ccccc4O3)C[C@@H]2C)s1` [Example 1, N-(4-Fluoro-5-(((2R,5′S)-5′-methyl-3H-spiro[benzofuran-2,3′-pyrrolidin]-1′-yl)methyl)thiazol-2-yl)acetamide], the concentration for half-maximal inhibition (IC50) in assay [1] amounted to 865 nM; in assay [2], 15 nM.

Take `CC(=O)Nc1ncc(CN2CCCC3(C2)OCc2c3ccnc2Cl)s1` (stereo not drawn) [Example 85, N-(5-((4-Chloro-3H-spiro[furo[3,4-c]pyridine-1,3′-piperidin]-1′-yl)methyl)thiazol-2-yl)acetamide]: the IC50 in assay [1] was found to be 17 nM; in assay [2], 4.5 nM.

On to `COc1nccc2c1C[C@]1(C[C@H](C)N(Cc3sc(NC(C)=O)nc3F)C1)O2` [Example 18, N-(4-Fluoro-5-(((2R,5′S)-4-methoxy-5′-methyl-3H-spiro[furo[3,2-c]pyridine-2,3′-pyrrolidin]-1′-yl)methyl)thiazol-2-yl)acetamide], for which the IC50 in assay [1] turned out to be 4 nM; in assay [2], 2 nM.

On to `CC(=O)Nc1ncc(CN2C[C@@]3(Cc4cc(N5CCN(C)CC5)ncc4O3)C[C@@H]2C)s1` [Example 44, N-(5-(((2R,5′S)-5′-Methyl-5-(4-methylpiperazin-1-yl)-3H-spiro[furo[2,3-c]pyridine-2,3′-pyrrolidin]-1′-yl)methyl)thiazol-2-yl)acetamide], for which the results for the IC50 in assay [1] and in assay [2] were 13 nM and less than 1 nM, respectively.

In the case of `CC(=O)Nc1nc(F)c(CN2C[C@@]3(Cc4ccncc4O3)C[C@@H]2C)s1` [Example 9, N-(4-Fluoro-5-(((2R,5′S)-5′-methyl-3H-spiro[furo[2,3-c]pyridine-2,3′-pyrrolidin]-1′-yl)methyl)thiazol-2-yl)acetamide], the IC50 stood at 12 nM in assay [1] and 1 nM in assay [2].

Regarding `CC(=O)Nc1ncc(CN2CCCC3(C2)OCc2c3cc[nH]c2=O)s1` (stereo not drawn) [Example 87, N-(5-((4-Oxo-4,5-dihydro-3H-spiro[furo[3,4-c]pyridine-1,3′-piperidin]-1′-yl)methyl)thiazol-2-yl)acetamide], the IC50 in assay [1] stood at 54.3 nM; in assay [2] it was 35 nM.

Consider `CC(=O)Nc1ncc(CN2CCC3(C2)OCc2cnccc23)s1` (stereo not drawn) [Example 66, N-(5-((3H-Spiro[furo[3,4-c]pyridine-1,3′-pyrrolidin]-1′-yl)methyl)thiazol-2-yl)acetamide], for which the half-inhibitory concentration (IC50) in assay [1] amounted to 794 nM; in assay [2] it was 210 nM.

Take `COc1cc2c(cn1)O[C@]1(C2)C[C@H](C)N(Cc2sc(NC(C)=O)nc2F)C1` [Example 16, N-(4-Fluoro-5-(((2R,5′S)-5-methoxy-5′-methyl-3H-spiro[furo[2,3-c]pyridine-2,3′-pyrrolidin]-1′-yl)methyl)thiazol-2-yl)acetamide]: the IC50 in assay [1] was 2 nM; in assay [2] it was less than 1 nM.

With `COc1cc2c(cn1)O[C@]1(C2)C[C@H](C)N(Cc2cnc(NC(C)=O)s2)C1` [Example 17, N-(5-(((2R,5′S)-5-Methoxy-5′-methyl-3H-spiro[furo[2,3-c]pyridine-2,3′-pyrrolidin]-1′-yl)methyl)thiazol-2-yl)acetamide], the IC50 is 8 nM in assay [1] and less than 1 nM in assay [2].

On to `CC(=O)Nc1nc(F)c(CN2C[C@@]3(C[C@@H]2C)OCc2cnccc23)s1` (single isomer, unassigned) [Example 64-a], for which the IC50 was determined as 118 nM in assay [1] and 10 nM in assay [2].

For the molecule `CC(=O)Nc1nc(F)c(CN2CCC3(Cc4cnccc4O3)C2)s1` (stereo not drawn) [Example 12, N-(5-((3H-Spiro[furo[3,2-c]pyridine-2,3′-pyrrolidin]-1′-yl)methyl)-4-fluorothiazol-2-yl)acetamide], the IC50 was 93 nM in assay [1] and 35 nM in assay [2].

As for `CC(=O)Nc1nc(F)c(CN2C[C@@]3(Cc4cc(N5CCC5)ncc4O3)C[C@@H]2C)s1` [Example 34, N-(5-(((2R,5′S)-5-(Azetidin-1-yl)-5′-methyl-3H-spiro[furo[2,3-c]pyridine-2,3′-pyrrolidin]-1′-yl)methyl)-4-fluorothiazol-2-yl)acetamide], the IC50 in assay [1] was 1 nM; in assay [2], less than 1 nM.

Take `CC(=O)Nc1nc(F)c(CN2C[C@@]3(Cc4cc(N(C)C)ncc4O3)C[C@@H]2C)s1` [Example 28, N-(5-(((2R,5′S)-5-(Dimethylamino)-5′-methyl-3H-spiro[furo[2,3-c]pyridine-2,3′-pyrrolidin]-1′-yl)methyl)-4-fluorothiazol-2-yl)acetamide]: the figures for the IC50 in assay [1] and in assay [2] were 1 nM and less than 1 nM, respectively.

As to `CC(=O)Nc1ncc(CN2C[C@@]3(Cc4cc(C5CC5)ncc4O3)C[C@@H]2C)s1` [Example 25, N-(5-(((2R,5′S)-5-Cyclopropyl-5′-methyl-3H-spiro[furo[2,3-c]pyridine-2,3′-pyrrolidin]-1′-yl)methyl)thiazol-2-yl)acetamide], the half-inhibitory concentration (IC50) turned out to be 23 nM in assay [1] and 6 nM in assay [2].

Turning to `CC(=O)Nc1ncc(CN2C[C@@]3(Cc4cc(N5CCOCC5)ncc4O3)C[C@@H]2C)s1` [Example 37, N-(5-(((2R,5′S)-5′-Methyl-5-morpholino-3H-spiro[furo[2,3-c]pyridine-2,3′-pyrrolidin]-1′-yl)methyl)thiazol-2-yl)acetamide], the figures for the IC50 in assay [1] and in assay [2] were 9 nM and less than 1 nM, respectively.

Regarding `CC(=O)Nc1nc(F)c(CN2CCCC3(C2)OCc2cncnc23)s1` (stereo not drawn) [Example 88, N-(5-((5H-Spiro[furo[3,4-d]pyrimidine-7,3′-piperidin]-1′-yl)methyl)-4-fluorothiazol-2-yl)acetamide], the IC50 in assay [1] was 90.3 nM; in assay [2] it was 20.8 nM.

As for `CC(=O)Nc1nc(F)c(CN2C[C@@]3(Cc4cc(NC(C)C)ncc4O3)C[C@@H]2C)s1` [Example 30, N-(4-Fluoro-5-(((2R,5′S)-5-(isopropylamino)-5′-methyl-3H-spiro[furo[2,3-c]pyridine-2,3′-pyrrolidin]-1′-yl)methyl)thiazol-2-yl)acetamide], the IC50 in assay [1] is 8 nM; in assay [2] it was less than 1 nM.

For `CC(=O)Nc1ncc(CN2CC3(CCC2C)OCc2ccccc23)s1` (stereo not drawn) [Example 60, N-(5-((6′-Methyl-3H-spiro[isobenzofuran-1,3′-piperidin]-1′-yl)methyl)thiazol-2-yl)acetamide], the 50% inhibitory concentration (IC50) was greater than 1000 nM in assay [1] and 1700 nM in assay [2].

The values are drawn from patent US12565504B2, “Spirocyclic O-glycoprotein-2-acetamido-2-deoxy-3-d-glucopyranosidase inhibitors” (BIOGEN MA INC., priority 2019, dated 2026).
